Measurements from patent US20030153539A1, “Method to potentiate the therapeutic efficacy of taxane and derivatives thereof” (priority 2000, published 2003).

Tests used:
[1] = molecular target: CYP2D6 (Homo sapiens, UniProt P10635); test: In vitro inhibition of cDNA expressed human CYP2D6 (delavirdine substrate, radio-HPLC); conditions: mean of n=3
Method: (§1) All incubations were conducted in triplicate.
(§2) See table 2 for HPLC mobile phase conditions.

[2] = molecular target: CYP2C19 (Homo sapiens, UniProt P33261); test: In vitro inhibition of cDNA expressed human CYP2C19 ((S)-mephenytoin substrate, radio-HPLC); conditions: control 100%, mean of n=3
Method: as §1, §2

[3] = molecular target: CYP3A4 (Homo sapiens, UniProt P08684); test: In vitro inhibition of cDNA expressed human CYP3A4 (testosterone substrate, radio-HPLC); conditions: for percentage of activity remaining in the presence of the compound: mean of n=3
Method: as §1, §2

[4] = molecular target: CYP2C9 (Homo sapiens, UniProt P11712); test: In vitro inhibition of cDNA expressed human CYP2C9 (diclofenac substrate, radio-HPLC); conditions: mean of n=3
Method: as §1, §2

[5] = molecular target: T1, CYP1A2 (Homo sapiens, UniProt P05177); test: In vitro inhibition of cDNA expressed human CYP1A2 (chlorzoxazone substrate, radio-HPLC); conditions: mean of n=3
T1 sequence (P05177 1-516): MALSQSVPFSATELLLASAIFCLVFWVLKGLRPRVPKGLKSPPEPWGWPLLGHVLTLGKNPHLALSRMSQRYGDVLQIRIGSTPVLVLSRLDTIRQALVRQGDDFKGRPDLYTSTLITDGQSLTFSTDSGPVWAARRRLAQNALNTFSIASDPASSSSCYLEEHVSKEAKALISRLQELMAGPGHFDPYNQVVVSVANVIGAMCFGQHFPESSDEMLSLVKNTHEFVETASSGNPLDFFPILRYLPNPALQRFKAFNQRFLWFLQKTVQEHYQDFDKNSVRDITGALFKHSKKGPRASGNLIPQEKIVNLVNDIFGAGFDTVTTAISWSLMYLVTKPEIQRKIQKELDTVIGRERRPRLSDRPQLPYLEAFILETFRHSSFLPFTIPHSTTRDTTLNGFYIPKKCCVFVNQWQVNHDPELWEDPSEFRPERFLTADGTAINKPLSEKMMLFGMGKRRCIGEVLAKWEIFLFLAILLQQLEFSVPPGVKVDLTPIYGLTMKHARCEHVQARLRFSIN
Method: as §1, §2

[6] = molecular target: T2, CYP2C8 (Homo sapiens, UniProt P10632); test: Inhibition of CYP2C8 mediated 6α-hydroxylation of paclitaxel (human CYP2C8 cDNA expressed microsomes, HPLC-UV); assay type: biochemical; conditions: 20 μM paclitaxel
T2 construct: purchased Gentest (Woburn, Mass., USA)
T2 sequence (P10632 1-490): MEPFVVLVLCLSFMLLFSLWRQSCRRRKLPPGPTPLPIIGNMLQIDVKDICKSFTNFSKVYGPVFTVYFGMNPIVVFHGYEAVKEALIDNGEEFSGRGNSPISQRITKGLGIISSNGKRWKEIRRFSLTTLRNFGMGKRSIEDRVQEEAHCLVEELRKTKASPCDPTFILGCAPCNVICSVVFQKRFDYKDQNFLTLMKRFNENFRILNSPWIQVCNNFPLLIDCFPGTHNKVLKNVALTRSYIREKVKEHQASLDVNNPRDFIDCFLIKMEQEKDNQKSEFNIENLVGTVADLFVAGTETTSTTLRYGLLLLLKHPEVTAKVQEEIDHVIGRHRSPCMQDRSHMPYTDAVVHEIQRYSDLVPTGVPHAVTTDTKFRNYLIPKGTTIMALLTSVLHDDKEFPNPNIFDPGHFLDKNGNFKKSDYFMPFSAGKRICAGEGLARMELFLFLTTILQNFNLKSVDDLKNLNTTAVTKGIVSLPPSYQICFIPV
Method: A 100 μl reaction mixture containing 4 pmol CYP2C8, […] paclitaxel (5 mM paclitaxel stock in ethanol) and NADPH (2 mM) in 50 mM potassium phosphate buffer (pH 7.4) was incubated at 37° C. for 40 min in the absence (solvent only) and presence of either 100 μM estramustine or estromustine.
Estramustine and estromustine were dissolved in DMSO:CH3CN (1:1). The reaction was stopped by addition of 50 μl CH3CN followed by an additional 50 μl of mobile phase. […] All incubations were conducted in triplicate.
See table 2 for HPLC mobile phase conditions. Both paclitaxel and the metabolite 6a-hydroxypaclitaxel were detected by its absorbance at 230 nm.
To investigate if estramustine and estromustine were able to inhibit CYP2C8 mediated enzyme activities, human CYP2C8 cDNA expressed microsomes were incubated with paclitaxel in the presence of either estramustine or estromustine.

[7] = CYP2D6, compound at 100 μM, control 100%
[8] = CYP3A4, compound at 100 μM, control 100%
[9] = CYP2C9, compound at 100 μM, control 100%
[10] = CYP1A2, compound at 100 μM, control 100%

Chain of CYP2D6 (P10635 whole entry): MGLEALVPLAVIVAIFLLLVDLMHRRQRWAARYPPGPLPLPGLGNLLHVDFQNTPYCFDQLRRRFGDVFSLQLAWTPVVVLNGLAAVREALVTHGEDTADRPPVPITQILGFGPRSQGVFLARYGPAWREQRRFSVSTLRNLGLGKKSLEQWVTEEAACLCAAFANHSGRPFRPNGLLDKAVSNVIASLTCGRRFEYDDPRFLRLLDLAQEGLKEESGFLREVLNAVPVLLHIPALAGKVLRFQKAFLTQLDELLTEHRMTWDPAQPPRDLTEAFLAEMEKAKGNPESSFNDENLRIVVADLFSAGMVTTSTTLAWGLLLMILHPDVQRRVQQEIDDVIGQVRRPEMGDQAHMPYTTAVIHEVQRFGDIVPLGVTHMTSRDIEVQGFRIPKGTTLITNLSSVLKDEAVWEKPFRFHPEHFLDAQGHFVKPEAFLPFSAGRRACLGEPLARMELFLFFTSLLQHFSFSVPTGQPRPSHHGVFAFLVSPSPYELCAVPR
Chain of CYP2C19 (P33261 whole entry): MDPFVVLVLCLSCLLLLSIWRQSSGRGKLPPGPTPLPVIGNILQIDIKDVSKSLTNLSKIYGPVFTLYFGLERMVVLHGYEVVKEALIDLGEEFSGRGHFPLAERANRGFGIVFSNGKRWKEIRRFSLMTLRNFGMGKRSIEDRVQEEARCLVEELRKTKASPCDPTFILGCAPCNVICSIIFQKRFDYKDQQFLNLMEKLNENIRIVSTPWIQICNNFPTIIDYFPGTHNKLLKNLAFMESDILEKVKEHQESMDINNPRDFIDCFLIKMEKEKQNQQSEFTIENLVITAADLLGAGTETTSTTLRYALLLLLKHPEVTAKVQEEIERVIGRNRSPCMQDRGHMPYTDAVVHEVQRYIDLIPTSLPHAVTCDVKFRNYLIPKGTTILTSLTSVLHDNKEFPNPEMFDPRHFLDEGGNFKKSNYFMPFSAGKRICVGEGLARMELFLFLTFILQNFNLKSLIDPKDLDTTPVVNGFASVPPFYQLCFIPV
Chain of CYP3A4 (P08684 whole entry): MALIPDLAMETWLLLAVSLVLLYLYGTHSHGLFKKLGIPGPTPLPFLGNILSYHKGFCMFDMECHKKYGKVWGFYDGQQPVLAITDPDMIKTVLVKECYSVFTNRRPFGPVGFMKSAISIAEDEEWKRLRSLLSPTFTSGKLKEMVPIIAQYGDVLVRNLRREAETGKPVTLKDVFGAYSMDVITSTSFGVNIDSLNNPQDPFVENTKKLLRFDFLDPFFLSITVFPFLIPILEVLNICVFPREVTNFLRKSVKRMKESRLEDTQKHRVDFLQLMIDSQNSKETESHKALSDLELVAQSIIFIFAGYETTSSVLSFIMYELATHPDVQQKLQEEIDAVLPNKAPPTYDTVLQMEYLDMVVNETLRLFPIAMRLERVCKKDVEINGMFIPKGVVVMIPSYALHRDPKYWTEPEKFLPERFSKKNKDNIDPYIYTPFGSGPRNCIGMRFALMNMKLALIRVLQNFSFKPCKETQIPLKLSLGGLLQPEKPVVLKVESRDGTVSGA
Chain of CYP2C9 (P11712 whole entry): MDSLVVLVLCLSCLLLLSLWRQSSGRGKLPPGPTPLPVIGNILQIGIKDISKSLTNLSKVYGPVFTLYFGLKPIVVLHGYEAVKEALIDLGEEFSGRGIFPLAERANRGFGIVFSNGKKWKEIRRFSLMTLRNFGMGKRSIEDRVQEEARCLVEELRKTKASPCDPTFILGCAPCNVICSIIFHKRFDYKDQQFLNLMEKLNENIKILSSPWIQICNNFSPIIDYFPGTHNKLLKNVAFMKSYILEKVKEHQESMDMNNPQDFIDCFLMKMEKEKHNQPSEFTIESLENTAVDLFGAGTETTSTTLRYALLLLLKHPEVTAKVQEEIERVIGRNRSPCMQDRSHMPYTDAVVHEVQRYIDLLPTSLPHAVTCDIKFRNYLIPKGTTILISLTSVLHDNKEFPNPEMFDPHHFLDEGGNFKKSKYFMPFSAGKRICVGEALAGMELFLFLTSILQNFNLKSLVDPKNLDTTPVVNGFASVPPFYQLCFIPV

| Compound | percentage of activity remaining in the presence of the compound [1, 7] [%] | percentage of activity remaining in the presence of the compound ([1]; CYP2D6, control 100%) [%] | percentage of activity remaining in the presence of the compound ([2]; CYP2C19, compound at 100 μM) [%] | percentage of activity remaining in the presence of the compound ([2]; CYP2C19, first estramustine column, head prints 100 μM) [%] | percentage of activity remaining in the presence of the compound [3, 8] [%] | percentage of activity remaining in the presence of the compound ([3]; CYP3A4, control 100%) [%] | inhibition at 90 min, 100 µM ([3]; human) [%] | percentage of activity remaining in the presence of the compound [4, 9] [%] | percentage of activity remaining in the presence of the compound ([4]; CYP2C9, control 100%) [%] | percentage of activity remaining in the presence of the compound [5, 10] [%] | percentage of activity remaining in the presence of the compound ([5]; CYP1A2, control 100%) [%] | inhibition at 40 min, 100 μM ([6]; human, microsomes, pH 7.4, CYP2C8, compound at 100 μM) [%] | percentage of activity remaining in the presence of the compound ([1]; CYP2D6, compound at 10 μM, control 100%) [%] | percentage of activity remaining in the presence of the compound ([2]; CYP2C19, compound at 10 μM) [%] | percentage of activity remaining in the presence of the compound ([3]; CYP3A4, compound at 10 μM, control 100%) [%] | percentage of activity remaining in the presence of the compound ([4]; CYP2C9, compound at 10 μM, control 100%) [%] | percentage of activity remaining in the presence of the compound ([5]; CYP1A2, compound at 10 μM, control 100%) [%] | inhibition of 6α-hydroxylation of paclitaxel ([6]; CYP2C8, compound at 100 μM, 40 min) [%] |
| --- | --- | --- | --- | --- | --- | --- | --- | --- | --- | --- | --- | --- | --- | --- | --- | --- | --- | --- |
| C[C@]12CC[C@@H]3c4ccc(OC(=O)N(CCCl)CCCl)cc4CC[C@H]3[C@@H]1CC[C@@H]2O [Estramustine, estramustine] | 32.7 | 38.0 | 40.1 | 37.9 | 20.2 | 27.0 | ~80 | 58.8 | 56.4 | 57.2 | 72.7 | 40 | – | – | – | – | – | – |
| C[C@]12CC[C@@H]3c4ccc(OC(=O)N(CCCl)CCCl)cc4CC[C@H]3[C@@H]1CCC2=O [Estromustine, estromustine] | 76.9 | – | 81.0 | – | 33.1 | – | – | 86.9 | – | 68.4 | – | – | 64.1 | 90.6 | 43.2 | 92.5 | 85.0 | 20 |
